# Assay results taken from patent US4895842A, “Phenylalanine derivative and proteinase inhibitor” (Shosuke Okamoto, priority 1985, dated 1990).
# Where a name gives a salt, the structure may show the parent alone.
# Assays:
# [1] = molecular target: T1, bovine trypsin (Bos taurus, UniProt P00760); test: Antitrypsin activity: inhibition of S-2238 decomposition; format: biochemical; conditions: Table 2; S-2238 substrate, pH 8.1, 37° C.; read-out: Trypsin S-2238 (I50)
# T1 sequence (P00760 24-246): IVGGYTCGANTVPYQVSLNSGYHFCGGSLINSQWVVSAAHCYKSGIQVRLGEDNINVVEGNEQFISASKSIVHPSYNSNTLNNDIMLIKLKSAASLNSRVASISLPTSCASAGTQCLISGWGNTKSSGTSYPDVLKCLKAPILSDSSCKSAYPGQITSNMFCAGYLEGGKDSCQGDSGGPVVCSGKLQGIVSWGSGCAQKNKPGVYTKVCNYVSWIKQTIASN
# Experimental: Determination of inhibition activity against S-2238 decomposition
# An inhibitor sample is dissolved in a 0.05M Tris-imidazole buffer solution (pH=8.1) and 125 μl of a 1 mM S-2238 solution is added to make the total volume to 1.20 ml. The mixture is incubated at a temperature of 37° C. for 5 minutes in a constant temperature bath. To this mixture, 0.05 ml of bovine trypsin is added and the absorbance, at 405 nm, of the p-nitroaniline formed per minute is determined at a temperature of 37° C. by using the so-called initial velocity method. Thus, the concentration I50 (μmol) of the inhibitor sample, at which the absorbance is one half (i.e., 1/2) of that obtained in the absence of the inhibitor sample, is determined.
# [2] = molecular target: T2, human plasmin (Homo sapiens, UniProt P00747); test: Antiplasmin activity: inhibition of fibrin decomposition; format: biochemical; conditions: Table 2; concentration at which fibrin dissolution time is extended twice, pH 7.4, 37° C.; read-out: Plasmin Fibrin (I50)
# T2 sequence (P00747 581-810 limits assumed): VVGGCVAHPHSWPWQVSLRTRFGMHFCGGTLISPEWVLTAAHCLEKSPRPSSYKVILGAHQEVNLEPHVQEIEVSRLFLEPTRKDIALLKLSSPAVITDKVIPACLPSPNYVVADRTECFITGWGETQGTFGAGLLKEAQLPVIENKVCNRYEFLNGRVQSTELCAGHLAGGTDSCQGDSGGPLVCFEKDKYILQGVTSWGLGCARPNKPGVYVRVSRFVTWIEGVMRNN
# T2 sequence (P00747 97-580 partner limits assumed): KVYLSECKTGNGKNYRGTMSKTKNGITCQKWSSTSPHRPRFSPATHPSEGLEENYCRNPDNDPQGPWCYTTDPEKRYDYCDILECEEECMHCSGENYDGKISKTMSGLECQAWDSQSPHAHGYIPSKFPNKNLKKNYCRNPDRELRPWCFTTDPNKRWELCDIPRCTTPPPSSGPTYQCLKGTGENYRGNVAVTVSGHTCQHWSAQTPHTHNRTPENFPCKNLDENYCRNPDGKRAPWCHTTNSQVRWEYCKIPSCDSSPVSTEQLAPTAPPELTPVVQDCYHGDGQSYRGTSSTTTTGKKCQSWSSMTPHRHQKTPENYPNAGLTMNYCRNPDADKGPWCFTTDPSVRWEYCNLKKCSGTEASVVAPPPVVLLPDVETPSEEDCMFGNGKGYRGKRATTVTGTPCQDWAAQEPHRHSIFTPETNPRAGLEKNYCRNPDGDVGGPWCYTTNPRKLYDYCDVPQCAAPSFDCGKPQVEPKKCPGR
# Outline: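 Inhibitor in 0.18 M borate–physiological saline buffer, pH 7.4, received bovine fibrinogen (0.2% solution), human plasmin (0.3 casein unit/ml solution) and bovine thrombin (50 unit/ml solution) at 37 °C. Time for the resulting fibrin clot to dissolve was recorded.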
# [3] = molecular target: human plasma kallikrein (Homo sapiens, UniProt P03952); test: Anti-plasma kallikrein activity: inhibition of S-2302 decomposition; format: biochemical; conditions: Table 2; S-2302 substrate, pH 7.8, 37° C.; read-out: Plasma Kallikrein S-2302 (I50)
# Sequence of human plasma kallikrein (P03952 391-638 limits assumed): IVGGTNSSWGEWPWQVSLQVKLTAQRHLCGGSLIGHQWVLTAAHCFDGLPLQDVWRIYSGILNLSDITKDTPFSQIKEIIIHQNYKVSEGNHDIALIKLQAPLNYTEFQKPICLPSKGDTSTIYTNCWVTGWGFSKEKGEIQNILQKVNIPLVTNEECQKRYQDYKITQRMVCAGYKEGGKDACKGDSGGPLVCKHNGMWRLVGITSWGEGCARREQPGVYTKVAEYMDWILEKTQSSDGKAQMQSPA
# Sequence of human plasma kallikrein (P03952 20-390 partner limits assumed): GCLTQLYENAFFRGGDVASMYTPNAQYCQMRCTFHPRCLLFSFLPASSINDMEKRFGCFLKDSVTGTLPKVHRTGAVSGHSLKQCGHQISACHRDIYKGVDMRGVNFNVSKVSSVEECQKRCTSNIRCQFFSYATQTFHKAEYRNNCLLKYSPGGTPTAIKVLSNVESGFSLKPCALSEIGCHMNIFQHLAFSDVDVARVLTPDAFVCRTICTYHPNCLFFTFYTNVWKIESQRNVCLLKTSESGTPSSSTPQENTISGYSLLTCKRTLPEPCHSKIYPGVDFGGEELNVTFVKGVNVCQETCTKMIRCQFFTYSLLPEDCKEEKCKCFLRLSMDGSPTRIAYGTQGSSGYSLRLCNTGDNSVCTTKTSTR
# Experimental: Determination of inhibition activity for S-2302 decomposition
# An inhibitor sample is dissolved in a 0.05M Tris-hydrochloric acid buffer solution (pH=7.8) to make the total volume to 400 μl. To this solution, 50 μl of a 2 mM S-2302 solution is added and the mixture is incubated at a temperature of 37° C. for 5 minutes in a constant temperature bath. Then, 50 μl of a 0.12 unit/ml human plasma kallikrein is added and the mixture is incubated at a temperature of 37° C. for 5 minutes. Thereafter, 50 μl of 50% acetic acid is added to terminate the reaction. The absorbance of the p-nitroaniline formed in the reaction mixture is measured at 405 nm. Thus, the concentration I50 (μmol) of the inhibitor sample, at which the absorbance is one half (i.e., 1/2) of that obtained in the absence of the inhibitor sample, is determined.
# [4] = molecular target: T3, bovine thrombin (Bos taurus, UniProt P00735); test: Antithrombin activity: inhibition of S-2238 decomposition; format: biochemical
# Outline: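 Inhibitor in 0.05 M Tris-HCl, pH 8.3, preincubated with S-2238 (0.2 mM stock) for 5 min at 37 °C. Bovine thrombin (0.2 unit/ml stock) then added, and p-nitroaniline release followed at 405 nm by initial velocity at 37 °C. I50 is the concentration halving the rate.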
# [5] = molecular target: human urokinase (Homo sapiens, UniProt P00749); test: biochemical; conditions: Table 2; S-2444 substrate, pH 8.8, 37° C.; read-out: Urokinase S-2444 (I50)
# Outline: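 Inhibitor in 0.05M Tris-HCl pH 8.8 preincubated 5 min at 37° C with S-2444 (1 mM solution added), then human urokinase (500 unit/ml solution) added for 5 min at 37° C; stopped with 50% acetic acid. p-Nitroaniline read at 405 nm; I50 is concentration halving absorbance versus no inhibitor.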
# [6] = molecular target: T2, human plasmin; test: biochemical; conditions: read-out: Plasmin S-2251 (I50)
# Outline: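 Inhibitor in 0.05M Tris-HCl buffer, pH 7.4, was incubated with human plasmin added at 0.2 casein unit/ml (stock) at 37° C for 4 minutes, then stopped with 50% acetic acid. I50 (μmol) is the inhibitor concentration giving half the absorbance obtained without inhibitor.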
# [7] = molecular target: T3, bovine thrombin; test: Antithrombin activity: inhibition of fibrin formation from fibrinogen; format: biochemical
# Outline: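 Inhibitor in 0.18M borate-saline buffer pH 7.4 mixed with 0.2% bovine fibrinogen and 4 unit/ml bovine thrombin (stock levels) at 37° C; clotting time measured. I50 is the inhibitor concentration doubling coagulation time versus uninhibited control.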
# [8] = Table 2, S-2238 substrate, pH 8.3, 37° C., read-out: Thrombin S-2238 (I50)
# [9] = Table 2, 50% inhibition concentration, S-2251 substrate, pH 7.4, 37° C.
# [10] = read-out: Thrombin Fibrinogen (I50), Table 2, concentration at which coagulation time of bovine fibrinogen is extended twice, pH 7.4, 37° C.
Structure (SMILES),IC50 [1],IC50 [2],IC50 [3],IC50 [4],IC50 [5],IC50 [6],IC50 [7],"IC50 [4, 8]","IC50 [6, 9]","IC50 [7, 10]"
NC[C@H]1CC[C@H](C(=O)N[C@@H](Cc2ccc(OCc3ccccc3)cc2)C(=O)NC2CC3CCC2C3)CC1 (some centres unmarked) [compound 64],1.1 µM,0.49 µM,2.3 µM,> 400 µM,65 µM,2.5 µM,> 250 µM,,,
NC[C@H]1CC[C@H](C(=O)N[C@@H](Cc2ccc(OCc3cccc(Cl)c3)cc2)C(=O)Nc2cccc(Cl)c2)CC1 [compound 66],3.9 µM,0.092 µM,0.54 µM,,350 µM,0.8 µM,> 50 µM,> 50 µM,,
CC(=O)c1ccc(NC(=O)[C@H](Cc2ccc(OCc3ccncc3)cc2)NC(=O)[C@H]2CC[C@H](CN)CC2)cc1 [compound 68],1 µM,0.65 µM,1.2 µM,,25 µM,1.2 µM,> 500 µM,> 400 µM,,
CCOC(=O)C1CCCC(NC(=O)[C@H](Cc2ccc(OCc3cccc(Cl)c3)cc2)NC(=O)[C@H]2CC[C@H](CN)CC2)C1 (some centres unmarked) [compound 70],1.3 µM,0.63 µM,6.2 µM,,82 µM,,,170 µM,1.7 µM,> 50 µM
CCOC(=O)C1CCCC(NC(=O)[C@H](Cc2ccc(OCc3cccc(Cl)c3)cc2)NC(=O)c2ccc(CN)cc2)C1 (some centres unmarked) [compound 72],0.95 µM,0.62 µM,25 µM,,> 200 µM,,,> 50 µM,2.1 µM,> 25 µM
NCc1ccc(C(=O)N[C@@H](Cc2ccc(OCc3ccccc3)cc2)C(=O)N2CCN(C(=O)c3ccccc3)CC2)cc1 [compound 73],450 µM,210 µM,> 200 µM,,> 200 µM,220 µM,> 400 µM,> 400 µM,,
CCOC(=O)c1cccc(NC(=O)[C@H](Cc2ccc(OCc3ccccc3)cc2)NC(=O)[C@H]2CC[C@H](CN)CC2)c1 [compound 75],1.1 µM,0.88 µM,2.4 µM,,65 µM,5.6 µM,> 100 µM,> 125 µM,,
NCc1ccc(C(=O)N[C@@H](Cc2ccc(OCc3ccccc3)cc2)C(=O)N2CCC(C(=O)c3ccccc3)CC2)cc1 [compound 76],38 µM,2.4 µM,> 200 µM,,> 250 µM,5.8 µM,> 25 µM,> 50 µM,,
NCc1ccc(C(=O)N[C@@H](Cc2ccc(OCc3ccccc3)cc2)C(=O)NCCc2ccccc2)cc1 [compound 78],9.2 µM,0.75 µM,100 µM,> 50 µM,> 200 µM,3.8 µM,> 50 µM,,,
CC1CCCC(NC(=O)[C@H](Cc2ccc(OCc3ccccc3)cc2)NC(=O)c2ccc(CN)cc2)C1C (some centres unmarked) [compound 82],7 µM,2.9 µM,40 µM,,> 400 µM,,,> 50 µM,8.5 µM,> 25 µM
CC(=O)c1ccc(NC(=O)[C@H](Cc2ccc(OCc3ccccc3Cl)cc2)NC(=O)[C@H]2CC[C@H](CN)CC2)cc1 [compound 83],1.5 µM,0.21 µM,0.51 µM,,58 µM,0.89 µM,> 50 µM,> 200 µM,,
CCOC(=O)c1ccc(COc2ccc(C[C@H](NC(=O)[C@H]3CC[C@H](CN)CC3)C(=O)Nc3ccc(C(C)=O)cc3)cc2)cc1 [compound 86],0.97 µM,0.35 µM,0.42 µM,,23 µM,0.95 µM,> 50 µM,> 100 µM,,
NCc1ccc(C(=O)N[C@@H](Cc2ccc(OCc3ccccc3)cc2)C(=O)NC2CCC(O)CC2)cc1 (some centres unmarked) [compound 88],52 µM,> 20 µM,120 µM,,> 200 µM,33 µM,> 20 µM,> 200 µM,,
NCC1CCC(C(=O)NC(Cc2ccc(OCc3cccc(Cl)c3)cc2)C(=O)Nc2cccc(S(N)(=O)=O)c2)CC1 (centres unmarked) [compound 93],2.5 µM,0.32 µM,1.2 µM,,78 µM,1.6 µM,> 100 µM,> 200 µM,,
CC1CCC(NC(=O)C(Cc2ccc(OCc3cccc(Cl)c3)cc2)NC(=O)C2CCC(CN)CC2)CC1C (centres unmarked) [compound 102],1.3 µM,0.16 µM,3.5 µM,,320 µM,0.69 µM,> 50 µM,> 400 µM,,
CCOC(=O)C1CCCC(NC(=O)[C@H](Cc2ccc(OCc3ccc(F)cc3)cc2)NC(=O)c2ccc(CN)cc2)C1 (some centres unmarked) [compound 105],2.5 µM,2.6 µM,40 µM,,> 200 µM,,,> 50 µM,4.2 µM,> 50 µM
CC1CCC(NC(=O)C(Cc2ccc(Oc3ccc([N+](=O)[O-])cc3)cc2)NC(=O)c2ccc(CN)cc2)CC1C (centres unmarked) [compound 109],0.43 µM,0.27 µM,20 µM,,> 200 µM,0.58 µM,> 40 µM,> 50 µM,,
CC(=O)c1ccc(NC(=O)C(Cc2ccc(OCc3ccccc3)cc2)NC(=O)c2ccc(CN)cc2)cc1 (centres unmarked) [compound 118],3 µM,0.77 µM,3.7 µM,,> 150 µM,3.4 µM,> 50 µM,> 50 µM,,
CC(=O)c1ccc(NC(=O)C(Cc2ccc(Oc3cc(Cl)ccc3[N+](=O)[O-])cc2)NC(=O)C2CCC(CN)CC2)cc1 (centres unmarked) [compound 123],0.71 µM,0.28 µM,0.078 µM,,26 µM,0.39 µM,> 50 µM,95 µM,,
NC[C@H]1CC[C@H](C(=O)N[C@@H](Cc2ccc(OCc3ccc(Cl)c(Cl)c3)cc2)C(=O)Nc2ccncc2)CC1 [compound 127],1.8 µM,0.29 µM,0.41 µM,,20 µM,1.5 µM,> 50 µM,> 200 µM,,
NC[C@H]1CC[C@H](C(=O)N[C@@H](Cc2ccc(OCc3cccc(Cl)c3)cc2)C(=O)Nc2ccnc(Cl)c2)CC1 [compound 128],1.3 µM,0.3 µM,0.44 µM,,82 µM,1.4 µM,> 100 µM,> 1000 µM,,
"CC(=O)c1ccc(NC(=O)[C@H](Cc2ccc([N+](=O)[O-])cc2)NC(=O)[C@H]2CC[C@H](CN)CC2)cc1 [compound 130, N-(trans-4-aminomethylcyclohexylcarbonyl)-4-nitro-L-phenylalanine 4-acetylanilide hydrochloride]",0.5 µM,7.1 µM,8.3 µM,,34 µM,15 µM,> 400 µM,> 400 µM,,
NCc1ccc(C(=O)N[C@@H](Cc2ccccc2)C(=O)Nc2cccc(C(F)(F)F)c2)cc1 [compound 131],4.4 µM,56 µM,17 µM,,> 250 µM,170 µM,> 500 µM,> 200 µM,,
